# Assay results as given in PMC6556873, “Rapid Covalent-Probe Discovery by Electrophile-Fragment Screening” (Journal of the American Chemical Society, 2019).
# Like-named read-outs stand apart in the source and are kept apart here.
# How the values were obtained:
# [1] = in vitro; design: species or system HB2, CCD841; details: human, hek293 cells
# [2] = in vitro; design: species or system HB2, HEK293; details: human, ccd841 cells
# [3] = biological target: T1, PCAF (Homo sapiens, UniProt Q92831); design: Intact protein LC/MS covalent labelling, fragments in pools of five, 200 uM each, 4 °C; details: 24 h, 4 °C, pool of five; 200 µM; covalent
# T1 construct: gene KAT2B
# [4] = biological target: T2, OTUB2 (OTUB2A) (Homo sapiens, UniProt Q96DC9); design: Intact protein LC/MS covalent labelling, fragments in pools of five, 200 uM each, 4 °C; details: 24 h, 4 °C, pool of five; 200 µM; covalent
# T2 construct: full length residues 1-234, E. coli BL21(DE3)-R3, His tag removed by TEV, construct 27312 Da
# T2 sequence (Q96DC9 1-234): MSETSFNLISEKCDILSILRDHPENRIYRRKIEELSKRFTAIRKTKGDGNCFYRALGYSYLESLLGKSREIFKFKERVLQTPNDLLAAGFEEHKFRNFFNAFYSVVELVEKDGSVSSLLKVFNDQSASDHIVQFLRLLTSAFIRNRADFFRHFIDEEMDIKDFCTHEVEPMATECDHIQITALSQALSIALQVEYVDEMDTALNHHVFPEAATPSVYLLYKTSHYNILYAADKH
# [5] = biological target: T3, NNMT (hNNMT) (Homo sapiens, UniProt P40261); design: Intact protein LC/MS covalent labelling, fragments in pools of five, 200 uM each, 4 °C; details: 24 h, 4 °C, pool of five; 200 µM; covalent
# T3 construct: wild type, N-terminal His6 tag kept (no cleavage described), E. coli, construct 31248 Da
# T3 sequence (P40261 1-264): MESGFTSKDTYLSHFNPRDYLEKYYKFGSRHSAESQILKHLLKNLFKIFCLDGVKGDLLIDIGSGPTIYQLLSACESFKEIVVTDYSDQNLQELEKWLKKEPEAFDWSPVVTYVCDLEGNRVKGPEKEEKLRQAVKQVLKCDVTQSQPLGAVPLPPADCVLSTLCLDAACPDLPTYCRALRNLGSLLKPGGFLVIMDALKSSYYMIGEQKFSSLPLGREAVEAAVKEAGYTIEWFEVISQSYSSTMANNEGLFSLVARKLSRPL
# [6] = biological target: T4, NUDT7 (Homo sapiens, UniProt P0C024); design: Intact protein LC/MS covalent labelling, fragments in pools of five, 200 uM each, 4 °C; details: 24 h, 4 °C, pool of five; 200 µM; covalent
# T4 construct: residues 14-235, E. coli, pNIC28-Bsa4, N-terminal His6 tag removed by TEV, construct 26672 Da
# [7] = biological target: T5, BSA (Bos taurus, UniProt P02769); design: Intact protein LC/MS covalent labelling, fragments in pools of five, 200 uM each, 4 °C; details: 24 h, 4 °C, pool of five; 200 µM; covalent
# T5 construct: gene ALB
# [8] = in vitro; design: species or system CCD841, HEK293; details: human, hb2 cells, read-out: HB-2 Cells Viability (%)
# T1 sequence (Q92831 whole entry, the tested form may be a part): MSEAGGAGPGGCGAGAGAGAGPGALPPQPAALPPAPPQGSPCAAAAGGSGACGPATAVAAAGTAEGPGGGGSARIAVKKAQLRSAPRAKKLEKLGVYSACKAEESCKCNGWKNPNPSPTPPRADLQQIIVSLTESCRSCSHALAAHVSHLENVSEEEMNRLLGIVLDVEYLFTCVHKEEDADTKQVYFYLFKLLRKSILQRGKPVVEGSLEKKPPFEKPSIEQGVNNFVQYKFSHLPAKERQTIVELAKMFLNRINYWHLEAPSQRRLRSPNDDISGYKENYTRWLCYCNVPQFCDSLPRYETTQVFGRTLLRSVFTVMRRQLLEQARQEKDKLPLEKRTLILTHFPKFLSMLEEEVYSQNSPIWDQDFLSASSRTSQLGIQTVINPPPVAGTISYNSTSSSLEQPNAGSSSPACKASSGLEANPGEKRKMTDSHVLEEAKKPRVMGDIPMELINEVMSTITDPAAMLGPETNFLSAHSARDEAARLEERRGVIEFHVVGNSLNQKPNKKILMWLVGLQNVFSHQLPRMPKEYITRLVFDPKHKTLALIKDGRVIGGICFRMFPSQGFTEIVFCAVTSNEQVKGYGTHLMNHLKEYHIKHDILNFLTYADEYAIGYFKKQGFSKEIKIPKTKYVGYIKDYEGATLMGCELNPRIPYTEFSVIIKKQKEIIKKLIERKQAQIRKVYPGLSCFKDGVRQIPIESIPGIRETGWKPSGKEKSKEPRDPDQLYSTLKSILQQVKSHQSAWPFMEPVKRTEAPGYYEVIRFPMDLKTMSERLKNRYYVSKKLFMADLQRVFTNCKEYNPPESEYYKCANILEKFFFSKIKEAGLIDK
# T4 sequence (P0C024 14-235): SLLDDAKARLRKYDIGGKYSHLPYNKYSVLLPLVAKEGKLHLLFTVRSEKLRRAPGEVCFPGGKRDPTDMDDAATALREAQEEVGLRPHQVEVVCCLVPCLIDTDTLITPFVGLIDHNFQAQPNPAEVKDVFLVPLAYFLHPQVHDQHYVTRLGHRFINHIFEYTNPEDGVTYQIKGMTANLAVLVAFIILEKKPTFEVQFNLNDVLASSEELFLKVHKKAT
# T5 sequence (P02769 whole entry, the tested form may be a part): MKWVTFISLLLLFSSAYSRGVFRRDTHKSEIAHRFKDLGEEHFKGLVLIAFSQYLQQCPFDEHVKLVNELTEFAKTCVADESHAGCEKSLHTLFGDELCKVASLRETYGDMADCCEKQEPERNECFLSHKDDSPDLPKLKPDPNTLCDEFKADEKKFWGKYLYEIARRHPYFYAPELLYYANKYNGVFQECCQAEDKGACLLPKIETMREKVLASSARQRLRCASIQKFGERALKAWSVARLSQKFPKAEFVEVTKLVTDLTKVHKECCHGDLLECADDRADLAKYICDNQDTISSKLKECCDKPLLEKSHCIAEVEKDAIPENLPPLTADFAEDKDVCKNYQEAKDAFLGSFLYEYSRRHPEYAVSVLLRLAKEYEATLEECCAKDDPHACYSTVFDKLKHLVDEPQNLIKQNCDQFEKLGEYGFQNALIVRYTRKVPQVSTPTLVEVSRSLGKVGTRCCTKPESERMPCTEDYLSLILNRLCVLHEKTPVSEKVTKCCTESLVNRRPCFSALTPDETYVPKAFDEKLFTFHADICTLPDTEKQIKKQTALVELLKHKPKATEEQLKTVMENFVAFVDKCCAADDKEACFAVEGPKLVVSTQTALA
PCAF [3],OTUB2 [4],NNMT [5],NUDT7 [6],BSA [7],Structure (SMILES),"viability at 48 h, 10 µM [1]","viability at 48 h, 10 µM [2]","viability at 48 h, 10 µM [8]"
0,0,0.11,0,0,C=CC(=O)N1CCC(c2nccn2C)C1 (stereo not shown) [PCM-0102553],103%,128%,99.3%
0,0,0,0,0.12,C=CC(=O)N1CCC2(CC1)CCS(=O)(=O)CC2 [PCM-0102559],113%,113%,105%
0,0,0.19,0,0,C=CC(=O)N1CC2(CCCC2)c2cc3c(cc2C1C)OCCO3 (stereo not shown) [PCM-0102560],116%,110%,102%
0,0,0,0,0,C=CC(=O)N1CCCC(c2nncn2C2CC2)C1 (stereo not shown) [PCM-0102567],113%,112%,102%
0,0,0.36,0.11,0,C=CC(=O)NCC1CCC2(CCOCC2)C1O (stereo not shown) [PCM-0102569],84.7%,110%,110%
0,0,0,0,0,C=CC(=O)N1CCCC1C1COCCC1(C)O (stereo not shown) [PCM-0102571],104%,107%,107%

# The next lines start with the compound.
Structure (SMILES),PCAF [3],OTUB2 [4],NNMT [5],NUDT7 [6],BSA [7],"viability at 48 h, 10 µM [1]","viability at 48 h, 10 µM [2]","viability at 48 h, 10 µM [8]"
CC(C)c1ccc(NC(=O)CCl)cc1 [PCM-0102532],0,0.33,0.68,0.18,0,7.1%,40.4%,12.7%
CNC(=O)NC(=O)CCl [PCM-0102534],0,0,0,0,0,92.2%,94.3%,97.9%
C=CC(=O)NNC(=O)c1ccccc1 [PCM-0102541],0,0,0,0,0,106%,112%,106%
COC(=O)c1cc(NC(=O)CCl)cn1C [PCM-0102545],0,0.33,0.16,0,0,12.7%,65.4%,54.5%
C=CC(=O)Nc1nc(C)cc(C)n1 [PCM-0102547],0,0,0,0.34,0,133%,100%,98.2%
C=CC(=O)NCC1=CS(=O)(=O)c2ccccc21 [PCM-0102563],0,0.04,0.07,0,0,82.9%,110%,102%
C=CC(=O)Nc1cccc(C(F)(F)F)c1 [PCM-0102573],0,0,0,0,0,108%,105%,103%
COc1ccccc1C(=O)NC(=O)CCl [PCM-0102574],0,0,0,0,0,118%,127%,104%
